target: RAF proto-oncogene serine/threonine-protein kinase (Homo sapiens, UniProt P04049); experiment: Inhibition of Raf-1
Sequence (P04049 whole entry): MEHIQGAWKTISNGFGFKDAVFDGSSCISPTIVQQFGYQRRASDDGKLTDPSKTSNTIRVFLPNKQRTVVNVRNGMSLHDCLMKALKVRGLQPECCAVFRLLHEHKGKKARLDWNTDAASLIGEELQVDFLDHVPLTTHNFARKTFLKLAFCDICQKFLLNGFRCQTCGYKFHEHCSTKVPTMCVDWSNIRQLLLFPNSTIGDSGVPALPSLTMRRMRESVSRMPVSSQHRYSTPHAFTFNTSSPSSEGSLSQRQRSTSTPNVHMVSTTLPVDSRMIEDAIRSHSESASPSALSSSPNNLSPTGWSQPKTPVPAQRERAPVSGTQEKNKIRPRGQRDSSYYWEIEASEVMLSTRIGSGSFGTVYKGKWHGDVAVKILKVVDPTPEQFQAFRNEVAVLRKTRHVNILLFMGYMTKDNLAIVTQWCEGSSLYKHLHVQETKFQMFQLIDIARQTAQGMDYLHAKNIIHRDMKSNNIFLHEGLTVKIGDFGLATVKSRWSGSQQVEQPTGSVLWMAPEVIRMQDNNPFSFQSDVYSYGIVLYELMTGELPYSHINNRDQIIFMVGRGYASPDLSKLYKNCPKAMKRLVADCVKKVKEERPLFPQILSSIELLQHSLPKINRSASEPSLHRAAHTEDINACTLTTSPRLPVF

Row | Compound | IC50 [nM]
1 | COC(=O)c1c(NC(=O)Nc2ccc(C)cc2)cc(C(C)(C)C)n1C | 5000
2 | Cc1c(NC(=O)Nc2cc(C(C)(C)C)on2)ccc(Oc2ccccc2)c1C | 650
3 | CC(=O)c1cccc(Oc2ccc(NC(=O)Nc3cc(C(C)(C)C)on3)cc2)c1 | 820
4 | COC(=O)c1sc(C(C)(C)C)cc1NC(=O)Nc1ccc(O)cc1 | 18000
5 | COc1cccc(Oc2ccc(NC(=O)Nc3cc(C(C)(C)C)on3)cc2)c1 | 700
6 | CC(C)(C)c1cc(NC(=O)Nc2ccc(Oc3ccccc3)c(C(F)(F)F)c2)no1 | 9500
7 | O=C(Nc1ccc(Oc2ccnc(C(=O)Nc3ccc(N4CCOCC4)cc3)c2)cc1)Nc1ccc(Cl)c(C(F)(F)F)c1 | 160
8 | Cc1cccc(Oc2ccc(NC(=O)Nc3cc(C(C)(C)C)on3)cc2)c1 | 1000
9 | CC(C)(C)c1cc(NC(=O)Nc2ccc(Cc3ccncc3)cc2)no1 | 590
10 | CC(C)(C)c1cc(NC(=O)Nc2ccc(Oc3ccc(C(=O)O)cc3)cc2)no1 | 4400
11 | Cc1cc(Oc2ccccc2)ccc1NC(=O)Nc1cc(C(C)(C)C)on1 | 1400
12 | CCNC(=O)c1cc(Oc2ccc(NC(=O)Nc3cc(C(F)(F)F)c(Cl)cc3OC)cc2)ccn1 | 88
13 | COc1ccc(Oc2ccc(NC(=O)Nc3cc(C(C)(C)C)on3)cc2)cc1 | 500

Further molecules by falling IC50, results first:

Row | IC50 [nM] | Compound
14 | 10000 | CC(=O)Nc1cccc(Oc2ccc(NC(=O)Nc3cc(C(C)(C)C)on3)cc2C(F)(F)F)c1
15 | 7500 | CNS(=O)(=O)c1cccc(Oc2ccc(NC(=O)Nc3cc(C(C)(C)C)on3)cc2)c1
16 | 4400 | COc1cc([N+](=O)[O-])ccc1NC(=O)Nc1ccc(Oc2ccncc2)cc1
17 | 2700 | COc1c(Cl)cccc1NC(=O)Nc1ccc(Oc2ccncc2)cc1
18 | 1500 | CC(C)(C)c1cc(NC(=O)Nc2ccc(C(O)c3ccncc3)cc2)no1 (stereo not given)
19 | 1100 | CNC(=O)c1ccc(Oc2ccc(NC(=O)Nc3cc(C(C)(C)C)on3)cc2)cc1
20 | 870 | CC(C)(C)c1cccc(NC(=O)Nc2ccc(Oc3ccncc3)cc2)c1
21 | 800 | Cn1nc(C(C)(C)C)cc1NC(=O)Nc1ccc(Oc2ccncc2)cc1
22 | 440 | COc1cccc(NC(=O)Nc2ccc(Oc3ccncc3)cc2)c1
23 | 230 | CN(C)c1ccc(NC(=O)c2cc(Oc3ccc(NC(=O)Nc4ccc(Cl)c(C(F)(F)F)c4)cc3)ccn2)cc1
24 | 120 | CC(C)(C)c1cc(NC(=O)Nc2ccc(Oc3ccncc3)cc2)on1
25 | 44 | O=C(Nc1ccc(Oc2ccnc(C(=O)Nc3cccnc3)c2)cc1)Nc1ccc(Cl)c(C(F)(F)F)c1
